Experimental data reported in patent US4600772A, “Cephalosporin antibiotics” (Glaxo Group Limited, priority 1978, dated 1986).

Tests used:
[1] = tested on: wide range of commonly encountered pathogenic organisms; test: Broad spectrum / general antibiotic activity; format: cell-based
[2] = tested on: strains of Pseudomonas organisms; test: Antibacterial activity against strains of Pseudomonas organisms; format: cell-based; settings: e.g. strains of Pseudomonas aeruginosa
[3] = Effect of human serum on antibacterial properties; format: cell-based
[4] = Effect of increased inocula; format: cell-based
Bactericidal action = format: cell-based; settings: at concentrations close to the minimum inhibitory concentration
gram-negative bacteria = test: Experimental infections in mice with gram-negative bacteria; format: in vivo
Pseudomonas aeruginosa = test: Experimental infections in mice with Pseudomonas aeruginosa; format: in vivo
[5] = Acute toxicity tests in mice; settings: mouse, in vivo
Nephrotoxicity in rats = format: in vivo; settings: dosages of 2.0 g/kg
[6] = in vivo
[7] = in vivo; remark: listed apart in the source
[8] = Distribution in small rodents after subcutaneous injection

Structure (SMILES) | properties compared with the compound of formula (Ib) [1] | activity against strains of Pseudomonas organisms [2] | antibiotic activity / general antibiotic properties [1] | impairment of antibacterial properties by human serum [3] | effect of increased inocula [4] | bactericidal action (Bactericidal action) | treatment of experimental infections in mice with gram-negative bacteria (gram-negative bacteria) | protection against strains of Pseudomonas aeruginosa (Pseudomonas aeruginosa) | protection compared with an aminoglycoside such as amikacin (Pseudomonas aeruginosa; versus amikacin) | LD50 [5] [mg/kg] | nephrotoxicity (Nephrotoxicity in rats) | distribution in the body [6] | serum levels [7] | therapeutic levels [8]
Nc1nc(/C(=N/OC2(C(=O)O)CCC2)C(=O)N[C@@H]2C(=O)N3C(C(=O)[O-])=C(C[n+]4ccccc4)CS[C@H]23)cs1 [(6R,7R)-7-[(Z)-2-(2-aminothiazol-4-yl)-2-(1-carboxycyclobut-1-oxyimino)acetamido]-3-(1-pyridiniummethyl)-ceph-3-em-4-carboxylate] | not dissimilar properties |  |  |  |  |  |  |  |  |  |  |  |  | 
CC(C)(O/N=C(\C(=O)N[C@@H]1C(=O)N2C(C(=O)[O-])=C(C[n+]3ccccc3)CS[C@H]12)c1csc(N)n1)C(=O)O [compound of formula (Ib), (6R,7R)-7-[(Z)-2-(2-aminothiazol-4-yl)-2-(2-carboxyprop-2-oxyimino)acetamido]-3-(1-pyridiniummethyl)-ceph-3-em-4-carboxylate] |  | excellent activity | possesses to an outstanding extent the general antibiotic properties | not impaired by human serum | low | rapidly bactericidal | successfully treated | excellent protection | comparable | > 1000 | No nephrotoxicity was observed | well distributed | high and long lasting serum levels | useful therapeutic levels
